{
  "source": "paper PMC6104039",
  "about": "(Nature Communications, 2018)",
  "key": {"C57BL6/J mice": {"system": "C57BL6/J mice", "assay": "Oral glucose tolerance test with labelled glucose and fasting insulin", "type": "in vivo", "settings": "5 mg/kg, chow or HFD", "procedure": "Mice were fasted for 6 h, then received 50 mg stable isotope-labeled glucose (6,6-^2H glucose, Sigma Aldrich) by oral gavage. Blood glucose was measured with a glucose meter (Accu-Check, Roche, NSW, Australia) prior to and at 15, 30, 45, 60 and 90 min following gavage. Additional blood (~10 μL) was collected from the tail tip prior to and at 15 and 60 min following glucose gavage. These samples were used to perform mass isotopologue analysis of plasma glucose via gas chromatography–mass spectrometry (GC–MS)[70]. Specifically, plasma glucose was separated into the labelled glucose load and the endogenous (liver/kidney-derived) unlabelled glucose to permit differentiation of glucose disposal from endogenous glucose production (Supplementary Figure 10). Fasting blood insulin was measured using an Ultrasensitive Mouse Insulin ELISA Kit (Crystal Chem, Illinois, USA). […]\nendogenous glucose synthesis. Plasma concentration of (a) labelled glucose resulting from an oral glucose load, and (b) endogenous glucose, during the oral glucose tolerance test. Mice"}, "liver": {"system": "liver", "assay": "Lipidomic profiling of liver", "type": "in vivo, mice", "settings": "for Ceramide 18:1/16:0 content of liver / Ceramide 18:1/18:0 content of liver / Ceramide 18:1/20:0 content of liver / Ceramide 18:1/22:0 content of liver / Ceramide 18:1/22:1 content of liver / Ceramide 18:1/24:0 content of liver / Ceramide 18:1/24:1 content of liver / SM 34:1 content of liver / SM 36:1 content of liver / SM 38:1 content of liver / SM 40:1 content of liver / SM 40:2 content of liver / SM 42:1 content of liver / SM 42:2 content of liver / SM 42:3 content of liver: individual mice; for Ceramide 18:1/16:0 content of liver / Ceramide 18:1/18:0 content of liver / Ceramide 18:1/20:0 content of liver / Ceramide 18:1/22:0 content of liver / Ceramide 18:1/22:1 content of liver / Ceramide 18:1/24:0 content of liver / Ceramide 18:1/24:1 content of liver: raw data Fig 3j; for SM 34:1 content of liver / SM 36:1 content of liver / SM 38:1 content of liver / SM 40:1 content of liver / SM 40:2 content of liver / SM 42:1 content of liver / SM 42:2 content of liver / SM 42:3 content of liver: raw data Fig 3k", "procedure": "Male C57BL6/J mice were obtained from the Animal Resources Centre in Perth (WA, Australia). Mice were housed at 22 ± 1 °C with a controlled 12:12 h light-dark cycle and had ad libitum access to water and either chow (8% calories from fat) or HFD (45% calories from fat)[66] for 4–6 weeks. […] Treatment was commenced at the same time as mice were randomised to dietary groups. The experiments were approved by the UNSW animal care and ethics committee (ACEC 15/48B), and followed guidelines issued by the National Health and Medical Research Council of Australia.\nLipids were extracted from frozen tissue samples or cells using a two-phase procedure with methyl-tert-butyl ether (MTBE)/methanol/water (10:3:2.5, v/v/v)[67]. Frozen tissue samples (~20 mg) were homogenized in 0.2 mL methanol containing 0.01% butylated hydroxytoluene (BHT), using a Precellys 24 homogenizer and Cryolys cooling unit (Bertin Technologies) with CK14 (1.4-mm ceramic) beads. The homogenates were spiked with an internal standard mixture comprising 5 nmole 19:0/19:0 phosphatidylcholine and 2 nmole each of 17:0/17:0 phosphatidylethanolamine, 17:0/17:0 phosphatidylserine, 17:0/17:0 d5-diacylglycerol, 17:0/17:0 phosphatidylglycerol, 14:0/14:0/14:0/14:0 cardiolipin, 18:1/12:0 SM, 18:1/17:0 ceramide, 18:1/12:0 glucosylceramide, 18:1/12:0 lactosylceramide, 18:1/12:0 sulfatide (all from Avanti Polar Lipids, USA), and 17:0/17:0/17:0 TAG (Cayman Chemical, USA), then transferred to 10 mL screw cap glass tubes. The homogenization tubes containing beads were then washed with another 0.3 mL methanol, and this wash was combined with the first methanol extract, after which 1.7 mL MTBE was added and the samples were sonicated in an ice-cold sonicating water bath (Thermoline Scientific, Australia) for 30 min. Phase separation was induced by addition of 417 µL of mass spectrometry-grade water followed by vortexing and centrifugation at 1000 × g for 10 min. The upper organic phase was collected into 5 mL glass tubes. The lower phase was re-extracted by adding 1 mL MTBE, 300 μL methanol, and 250 μL water. The organic phases were combined in the 5 mL glass tubes and dried under vacuum in a Savant SC210 SpeedVac (Thermo Scientific), then reconstituted in 500 μL methanol and stored at −20 °C until analysis.\nLipidomic profiling was performed on a QExactive Plus mass spectrometer with heated electrospray ionization (HESI) probe and a Dionex UltiMate 2000 LC pump (Thermo Fisher Scientific). Extracts were resolved on a 2.1 × 100 mm Waters Acquity C18 UPLC column (1.7 µm […]), using a binary gradient in which mobile phase A consisted of acetonitrile:water (60:40), 10 mM ammonium formate, 0.1% formic acid; and mobile phase B was isopropanol:acetonitrile (90:10), 10 mM ammonium formate, 0.1% formic acid[68]. The flow rate was 260 µL/min and column oven 55 °C. Data was acquired in full scan/data-dependent MS^2 mode (full scan resolution 70,000 FWHM, scan range 400–1200 m/z). The ten most abundant ions in each cycle were subjected to MS^2 using an isolation window of 1.4 m/z, collision energy 30 eV, resolution 17,500, maximum integration time 110 ms and dynamic exclusion window 10 s. An exclusion list of background ions was used based on a solvent blank. LipidSearch v4.1.30 software (ThermoFisher Scientific) was used for chromatogram alignment, peak identification and integration. Each lipid peak was manually verified for column elution time and characteristic fragment ions. Data were then exported to an Excel spreadsheet for normalisation of each lipid to its class-specific internal standard, and lipid concentrations were calculated relative to the internal standard.\nData were log transformed, then subjected to two-tailed t-tests adjusted for multiple comparisons using GraphPad PRISM (Benjamini, Krieger and Yekutieli correction, Q = 1%)."}},
  "note": "Values joined by “and” are separate entries in the source; they are usually repeats but may differ in a detail not shown here. Equal values may be shown once.",
  "data": [
    {"compound": "C[C@@](N)(CO)CCc1ccc(OCc2ccc(Cl)c(Cl)c2)cc1", "note": "[P053, (S)-2-amino-4-(4-(3,4-dichlorobenzyloxy)phenyl)-2-methylbutan-1-ol]", "values": [
      {"measurement": "fasting insulin and glucose tolerance", "setting": "C57BL6/J mice", "result": "no impact"},
      {"measurement": "iAUC for the labelled glucose load", "setting": "C57BL6/J mice", "result": "no effect"},
      {"measurement": "Ceramide 18:1/16:0 content of liver", "setting": "liver; Chow + P053", "result": "0.263 and 0.826 and 0.657 and 1.600 and 0.958 and 0.311 and 0.952 and 1.950 and 1.430 and 1.980"},
      {"measurement": "Ceramide 18:1/18:0 content of liver", "setting": "liver; Chow + P053", "result": "0.468 and 0.536 and 0.500 and 0.564 and 0.490 and 0.488 and 0.800 and 0.676 and 0.526 and 0.572"},
      {"measurement": "Ceramide 18:1/20:0 content of liver", "setting": "liver; Chow + P053", "result": "0.373 and 0.356 and 0.495 and 0.460 and 0.417 and 0.442 and 0.880 and 0.398 and 0.505 and 0.396"},
      {"measurement": "Ceramide 18:1/22:0 content of liver", "setting": "liver; Chow + P053", "result": "3.920 and 1.760 and 3.420 and 5.450 and 4.500 and 5.040 and 3.220 and 5.390 and 4.280 and 5.730"},
      {"measurement": "Ceramide 18:1/22:1 content of liver", "setting": "liver; Chow + P053", "result": "0.723 and 0.782 and 0.523 and 0.904 and 0.601 and 0.629 and 0.682 and 0.527 and 0.912 and 0.679"},
      {"measurement": "Ceramide 18:1/24:0 content of liver", "setting": "liver; Chow + P053", "result": "3.590 and 2.080 and 4.670 and 4.260 and 5.640 and 4.820 and 3.660 and 3.820 and 3.320 and 4.860"},
      {"measurement": "Ceramide 18:1/24:1 content of liver", "setting": "liver; Chow + P053", "result": "6.030 and 5.880 and 4.990 and 7.190 and 10.500 and 7.070 (2×) and 5.770 and 7.700 and 9.200"},
      {"measurement": "SM 34:1 content of liver", "setting": "liver; Chow + P053", "result": "166.01 and 387.90 and 294.94 and 188.63 and 560.02 and 385.72 and 339.20 and 244.42 and 416.06 and 213.21"},
      {"measurement": "SM 36:1 content of liver", "setting": "liver; Chow + P053", "result": "17.50 and 23.09 and 28.72 and 28.48 and 31.35 and 32.32 and 36.07 and 17.60 and 29.53 and 28.44"},
      {"measurement": "SM 38:1 content of liver", "setting": "liver; Chow + P053", "result": "20.23 and 36.64 and 18.78 and 30.07 and 30.24 and 24.30 and 33.98 and 28.61 and 27.66 and 25.39"},
      {"measurement": "SM 40:1 content of liver", "setting": "liver; Chow + P053", "result": "190.28 and 236.56 and 278.04 and 382.12 and 238.06 and 386.25 and 326.88 and 330.28 and 377.35 and 269.17"},
      {"measurement": "SM 40:2 content of liver", "setting": "liver; Chow + P053", "result": "31.01 and 36.97 and 24.71 and 36.72 and 38.54 and 35.80 and 48.00 and 37.75 and 38.85 and 32.99"},
      {"measurement": "SM 42:1 content of liver", "setting": "liver; Chow + P053", "result": "17.79 and 25.33 and 19.04 and 17.96 and 14.02 and 33.47 and 24.89 and 25.97 and 20.36 and 14.52"},
      {"measurement": "SM 42:2 content of liver", "setting": "liver; Chow + P053", "result": "265.43 and 723.53 and 60.59 and 173.83 and 445.88 and 448.77 and 411.18 and 225.87 and 409.74 and 354.33"},
      {"measurement": "SM 42:3 content of liver", "setting": "liver; Chow + P053", "result": "12.99 and 95.71 and 34.45 and 42.03 and 46.27 and 40.91 and 37.02 and 32.31 and 26.34 and 23.58"},
      {"measurement": "Ceramide 18:1/16:0 content of liver", "setting": "liver; HFD + P053", "result": "1.320 and 0.972 and 0.437 and 1.310 and 0.312 and 0.006 and 2.340 and 2.140 and 1.290 and 1.500"},
      {"measurement": "Ceramide 18:1/18:0 content of liver", "setting": "liver; HFD + P053", "result": "0.435 and 0.273 and 0.474 and 0.459 and 0.643 and 0.366 and 0.820 and 0.267 and 0.974 and 0.526"},
      {"measurement": "Ceramide 18:1/20:0 content of liver", "setting": "liver; HFD + P053", "result": "0.582 and 0.659 and 1.010 and 1.000 and 0.971 and 0.637 and 0.716 and 0.382 and 1.670 and 1.340"},
      {"measurement": "Ceramide 18:1/22:0 content of liver", "setting": "liver; HFD + P053", "result": "5.900 and 4.030 and 8.630 and 5.080 and 3.630 and 4.930 and 8.270 and 6.990 and 8.250 and 9.280"},
      {"measurement": "Ceramide 18:1/22:1 content of liver", "setting": "liver; HFD + P053", "result": "0.333 and 0.644 and 0.674 and 0.925 and 0.703 and 0.380 and 0.572 and 0.319 and 0.786 and 0.444"},
      {"measurement": "Ceramide 18:1/24:0 content of liver", "setting": "liver; HFD + P053", "result": "5.470 and 0.260 and 4.890 and 2.480 and 1.780 and 2.580 and 4.330 and 4.610 and 7.520 and 5.820"},
      {"measurement": "Ceramide 18:1/24:1 content of liver", "setting": "liver; HFD + P053", "result": "6.580 and 2.880 and 4.960 and 4.030 and 5.720 and 2.860 and 6.330 and 6.390 and 11.600 and 5.550"},
      {"measurement": "SM 34:1 content of liver", "setting": "liver; HFD + P053", "result": "482.51 and 71.17 and 450.03 and 341.58 and 602.82 and 140.43 and 342.86 and 326.17 and 1409.61 and 780.28"},
      {"measurement": "SM 36:1 content of liver", "setting": "liver; HFD + P053", "result": "53.21 and 102.16 and 78.05 and 79.54 and 65.66 and 116.67 and 78.22 and 28.49 and 259.61 and 108.18"},
      {"measurement": "SM 38:1 content of liver", "setting": "liver; HFD + P053", "result": "71.47 and 53.18 and 46.58 and 23.22 and 42.32 and 78.12 and 59.56 and 48.00 and 174.38 and 50.63"},
      {"measurement": "SM 40:1 content of liver", "setting": "liver; HFD + P053", "result": "580.97 and 447.50 and 671.33 and 376.94 and 209.01 and 396.09 and 367.60 and 345.17 and 872.91 and 711.11"},
      {"measurement": "SM 40:2 content of liver", "setting": "liver; HFD + P053", "result": "46.18 and 47.77 and 24.90 and 19.09 and 21.42 and 31.04 and 27.87 and 23.30 and 72.99 and 30.73"},
      {"measurement": "SM 42:1 content of liver", "setting": "liver; HFD + P053", "result": "18.56 and 11.22 and 9.61 and 4.95 and 13.26 and 9.80 and 20.61 and 8.52 and 19.00 and 16.17"},
      {"measurement": "SM 42:2 content of liver", "setting": "liver; HFD + P053", "result": "531.45 and 245.25 and 263.63 and 192.83 and 186.28 and 157.29 and 222.03 and 342.17 and 572.48 and 255.77"},
      {"measurement": "SM 42:3 content of liver", "setting": "liver; HFD + P053", "result": "38.83 and 26.76 and 24.26 and 23.94 and 22.31 and 29.44 and 41.75 and 49.23 and 92.66 and 37.38"},
      {"measurement": "265 lipids measured in liver", "setting": "liver; chow or HFD", "result": "none was significantly affected"}
    ]}
  ]
}
